Test results reported in BindingDB's records for patent US10370339 (Bayer Pharma Aktiengesellschaft, 2019).

biological target: Isocitrate dehydrogenase [NADP] cytoplasmic [R132H] (Homo sapiens, UniProt O75874, R132H); assay: Biological Assay
Method: Mutant IDH1 R132H Biochemical Assay mIDH1 catalyzes the NADPH-dependent reduction of alpha-ketoglutarate (a-KG) to (2R)-2-hydroxyglutarate (2-HG). NADPH consumption was measured by luminescent readout.The biochemical reactions were performed at 32° C. in 384-well plates using a reaction volume of 41 μL and the following assay buffer conditions: 50 mM Tris pH 7.5, 100 mM NaCl, 20 mM MgCl2, 0.05% BSA, 0.01% Brij, 1 μM NADPH, and 250 μM α-KG. The IDH1 R132H enzyme was used in a final concentration of 1.5 nM. Test compounds were used in a concentration range between 0.002 and 10 μM. The final DMSO concentration was 2.4%.The reaction was incubated for 30 minutes, then 40 μL of detection mix (0.75 μg/ml Luciferase, 0.02 U/ml Oxidoreductase, 4 μg/mL FMN, 2 μL/ml decanal/ethanol, 50 mM Tris pH 7.5, 0.5% Glycerin, 0.01% Tween-20, 0.05% BSA) was added. Luminescence was measured on a luminescent reader (10 seconds measuring time, 1 second integration period, 30% sensitivity). The decrease in luminescence is proportional to mIDH1 activity. IC50 values are determined by interpolation from plots of relative luminescence versus inhibitor concentration.

Isocitrate dehydrogenase [NADP] cytoplasmic [R132H], sequence (O75874 2-414 R132H limits assumed): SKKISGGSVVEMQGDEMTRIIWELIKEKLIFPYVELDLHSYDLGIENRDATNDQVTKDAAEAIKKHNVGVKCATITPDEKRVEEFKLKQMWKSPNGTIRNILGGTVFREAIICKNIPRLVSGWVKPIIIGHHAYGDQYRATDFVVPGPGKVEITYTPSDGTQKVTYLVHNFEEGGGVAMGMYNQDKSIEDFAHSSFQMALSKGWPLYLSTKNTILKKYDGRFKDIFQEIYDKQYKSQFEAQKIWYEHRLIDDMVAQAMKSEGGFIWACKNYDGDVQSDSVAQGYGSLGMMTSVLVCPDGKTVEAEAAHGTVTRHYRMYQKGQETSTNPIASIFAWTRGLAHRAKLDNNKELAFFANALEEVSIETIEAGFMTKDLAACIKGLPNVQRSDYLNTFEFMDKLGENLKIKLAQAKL

In order of falling IC50:
1. COc1cc2c(cc1C(=O)O)nc(Nc1ccc(OC(C)C)cc1)n2[C@@H]1C[C@H](C)CC[C@H]1C(C)C [US10370339, Example 2-30]  15 nM
2. CC(C)[C@@H]1CC[C@@H](C)C[C@H]1n1c(Nc2ccc(OC(F)(F)F)cc2)nc2cc(CC(=O)O)ccc21 [US10370339, Example 2-31]  14 nM
3. COc1cc2c(cc1CCC(=O)O)nc(Nc1ccc(C(C)C)cc1)n2[C@@H]1C[C@H](C)CC[C@H]1C(C)C [US10370339, Example 2-48]  11 nM
